For orientation: solubility means the concentration that dissolves in the medium under given conditions.

The data set in a line: Solubility in the one-pot biocatalysis reaction mixture. It is filed as physicochemical. As to conditions: undiluted one-pot biocatalysis reaction mixture (5 mL), 30 °C, aqueous buffer; undiluted 5 mL reaction (25 mM Tris-HCl pH 8.0); dilution to 40 mL and pH 6 increased solubility. The procedure:
Referring further to FIG. 13A, Step 1 was conducted in vitro using biocatalytic conversion. Three recombinant enzymes, the prenyl transferase PriB (SEQ.ID NO: 24), in addition to PhoNxt (SEQ.ID NO: 30), and IPKmt (SEQ.ID NO: 32) were individually expressed in E. coli using the following plasmids, respectively: pET26b(+)-PriB, pET28a(+)-IPKmt, and pET21(+)-PhoNxt. Prenyl transferase PriB (SEQ.ID NO: 24) catalyzes the stereospecific 6-prenylation of tryptophan with dimethylallyl pyrophosphate (DMAPP) as the prenyl-donor. A cDNA encoding PriB enzyme (SEQ.ID NO: 23) was synthesized and cloned into pET26b(+) vector by service provider GenScript (www.genscript.com) in-frame with a vector-encoded, N-terminal HIS epitope tag. PhoNxt (SEQ.ID NO: 30) is a non-specific acid phosphatase, while IPKmt (SEQ.ID NO: 32) is an isopentenyl phosphate kinase. Together, these two enzymes can use dimethylallyl alcohol (DMAOH) (www.sigmaaldrich.com) as the starting substrate to produce DMAPP, which in turn is a required co-substrate for PriB. cDNAs encoding IPkmt (SEQ.ID NO: 31) and PhoNxt (SEQ.ID NO: 29) were synthesized and cloned into E.coli expression vectors pET28a(+) and pET21(+), respectively using the Clonal Genes service of Twist Bioscience. Specifically, IPKmt was cloned between the NdeI and XhoI sites of pET28a(+) thus enabling an in-frame, N-terminal HIS tag in the corresponding protein. […]

Each structure is given as a SMILES string. Where only a bound is given, the exact number is not on record here.

Regarding `CC(C)=CCc1ccc2c(C[C@H](N)C(=O)O)c[nH]c2c1` [6-dimethylallyl-tryptophan], the solubility is below 1100 µg/mL.

(Values after patent US11891359B2, “Prenylated psilocybin derivatives and methods of using” (ENVERIC B[…] INC., priority 2021, dated 2024).)
